Data set [1] can be described thus: Metabolites in human plasma after oral psilocybin (reanalysed study samples). The settings on record: for Tmax: human, plasma, po, 30 mg.
Another data set addresses T1, human 5-HT1A receptor (Homo sapiens, UniProt P08908).
T1 sequence (P08908 1-422): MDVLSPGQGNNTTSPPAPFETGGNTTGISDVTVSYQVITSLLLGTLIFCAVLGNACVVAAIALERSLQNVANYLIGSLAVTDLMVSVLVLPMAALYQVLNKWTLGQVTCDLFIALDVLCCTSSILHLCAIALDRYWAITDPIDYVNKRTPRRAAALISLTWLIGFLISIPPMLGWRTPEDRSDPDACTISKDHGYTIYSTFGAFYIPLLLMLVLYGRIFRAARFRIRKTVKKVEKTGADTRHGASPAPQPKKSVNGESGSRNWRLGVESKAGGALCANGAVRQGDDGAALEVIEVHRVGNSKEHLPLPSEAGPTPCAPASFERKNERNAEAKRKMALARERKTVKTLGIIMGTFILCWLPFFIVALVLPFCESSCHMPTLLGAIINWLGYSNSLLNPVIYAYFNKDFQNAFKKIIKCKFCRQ
Kind of data set: 5-HT activation potency (IP1 accumulation), 5-HT1A. The class given is cell-based. The arrangement: expressed in transfected cells. As for the experimental part:
. […] NIH/3T3 cells stably expressing the human 5-HT1A, 5-HT2A, and 5-HT2B receptors were seeded at a density of 3,000 cells (5-HT1A and 5-HT2A) or 4,000 cells (5-HT2B) in 384-well plates using Opti-MEM medium from Gibco (ThermoFisher, Life Technologies, Zug, Switzerland). Subsequently, the test compounds were introduced, and the plates were incubated for 90 min at 37°C, followed by a 60 min incubation with Anti-IP1-Cryptate and IP1-d2 at room temperature. The formation of stimulated IP1 was quantified by homogeneous time-resolved fluorescence (HTRF) measurements using a BioTek Synergy H1 microplate reader (Agilent Technologies, Basel, Switzerland). The obtained raw data for receptor activation were subjected to normalization, wherein the baseline signal was set at 0%, and the maximum signal stimulated by 5-HT at the specific receptor was established as 100%.

In a further data set the target is T2, recombinant CYP2D6 (Homo sapiens, UniProt P10635).
T2 construct: purchased Corning Life Sciences B.V
T2 sequence (P10635 whole entry): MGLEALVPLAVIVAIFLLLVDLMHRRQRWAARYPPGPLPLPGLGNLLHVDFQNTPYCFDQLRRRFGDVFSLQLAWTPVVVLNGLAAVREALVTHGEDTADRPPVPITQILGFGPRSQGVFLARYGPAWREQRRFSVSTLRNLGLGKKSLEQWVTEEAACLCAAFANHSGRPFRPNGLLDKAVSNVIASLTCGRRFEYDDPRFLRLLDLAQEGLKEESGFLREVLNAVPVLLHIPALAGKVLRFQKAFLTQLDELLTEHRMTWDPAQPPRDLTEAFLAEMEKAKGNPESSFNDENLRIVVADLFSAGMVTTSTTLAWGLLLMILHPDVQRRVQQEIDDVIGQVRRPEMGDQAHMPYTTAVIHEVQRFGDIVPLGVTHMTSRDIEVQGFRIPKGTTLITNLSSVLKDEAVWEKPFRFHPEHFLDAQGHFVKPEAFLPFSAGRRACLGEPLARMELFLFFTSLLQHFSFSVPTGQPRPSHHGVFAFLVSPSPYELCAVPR
Kind of data set: Incubation with recombinant CYP2D6 enzymes. The class given is in vitro ADME. As to the method:
(§1) Corning UltraPool human liver microsomes (HLM) 150 (20 mg/mL), human intestinal microsomes (HIM) pool (10 mg/mL) as well as recombinant human CYP enzymes (with P450 oxidoreductase, OR) including CYP1A2+OR (0.5 nmol), CYP2B6+OR (0.5 nmol), CYP2C8+OR (1.0 nmol), CYP2C9*1+OR (1 nmol), CYP2C19+OR (0.5 nmol), CYP2D6*1+OR (0.5 nmol), CYP2E1+OR + cytochrome b5 (1 nmol), CYP3A4+OR + cytochrome b5 (0.5 nmol), MAO-A (5 mg/mL), MAO-B (5 mg/mL), and UGT1A10 (5 mg/mL) were purchased from Corning Life Sciences B.V (Amsterdam, Netherlands). All microsomes and recombinant enzyme solutions were aliquoted and stored at −80 °C until further use.
(§2) The total volume of the reaction mixture was 500 μL. […] Samples were either directly analyzed by liquid chromatography tandem mass spectrometry (LC-MS/MS) or briefly stored at −20°C until analysis.

Data set [2] has as its system human liver microsomes (HLM). Description: Psilocin incubation with human liver microsomes (CYP inhibition assay). The class given is in vitro ADME. The settings on record: for metabolite concentration formed from psilocin / psilocin concentration (mean ± SD): 1,000 nM psilocin with HLM; for metabolite concentration formed from psilocin: 240 min incubation; for psilocin concentration: absence of HLM. As for the experimental part: as §1, §2

Another data set addresses T3, recombinant MAO-A (Homo sapiens, UniProt P21397).
T3 construct: purchased Corning Life Sciences B.V
T3 sequence (P21397 1-527): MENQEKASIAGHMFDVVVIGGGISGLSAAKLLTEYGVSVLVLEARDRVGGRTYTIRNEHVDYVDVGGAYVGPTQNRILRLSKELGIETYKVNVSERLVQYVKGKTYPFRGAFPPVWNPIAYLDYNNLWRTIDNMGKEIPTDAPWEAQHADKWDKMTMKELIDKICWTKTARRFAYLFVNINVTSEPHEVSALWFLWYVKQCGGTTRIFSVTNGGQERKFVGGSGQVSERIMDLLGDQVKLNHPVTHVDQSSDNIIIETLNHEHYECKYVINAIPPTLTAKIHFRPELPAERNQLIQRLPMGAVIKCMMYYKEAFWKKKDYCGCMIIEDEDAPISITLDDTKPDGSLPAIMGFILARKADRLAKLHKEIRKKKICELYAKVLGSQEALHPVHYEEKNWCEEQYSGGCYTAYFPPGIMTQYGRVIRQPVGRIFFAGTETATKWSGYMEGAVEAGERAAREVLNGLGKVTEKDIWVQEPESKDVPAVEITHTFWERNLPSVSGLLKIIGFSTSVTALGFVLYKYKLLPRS
Description: Incubation with recombinant MAO-A enzymes. To be noted: for metabolite concentration formed from psilocin: 300 min; for metabolite formation from psilocin in presence of clorgyline: rec. MAO-A with clorgyline. The class given is in vitro ADME. As to the method: as §1
The MAO inhibition assay was based on the assay described in section 2.5.1 and performed identically if not otherwise stated.

For data set [3], the target named is T4, MAO-A in human liver microsomes (HLM) (Homo sapiens, UniProt P21397).
T4 construct: tissue Corning Life Sciences B.V; host or cells: pooled human liver microsomes
T4 sequence (P21397 1-527): T3 sequence (P21397 1-527)
Kind of data set: Monoamine oxidase A inhibition in human liver microsomes. The class given is in vitro ADME. To be noted: for biotransformation on incubation with HLM: 1,000 nM 4-HIAA or 4-HTP incubated with HLM; for metabolite concentration formed from psilocin (mean ± SD) / metabolite formation from psilocin in presence of clorgyline: 1,000 nM psilocin; for metabolite concentration formed from psilocin (mean ± SD): HLM alone, t = 240 min; for metabolite formation from psilocin in presence of clorgyline: HLM with MAO-A inhibitor clorgyline.

A further data set has as its target T5, recombinant CYP3A4 (Homo sapiens, UniProt P08684).
T5 construct: purchased Corning Life Sciences B.V
Description: Incubation with recombinant CYP3A4 enzymes. In kind it is in vitro ADME. To be noted: for formation of metabolite from psilocin: rec. CYP3A4. As for the experimental part: as §1, §2

[4] abbreviates: NIH/3T3 cells, IP1 accumulation, read-out: h5-HT1A Activation potency EC50 ± SD.

Each structure is given as a SMILES string. Like-named read-outs stand apart in the source and are kept apart here. Where only a bound is given, the exact number is not on record here.

Three compounds from article PMC11089204 (Frontiers in Pharmacology, 2024) can be followed below.

T5 sequence (P08684 2-503 limits assumed): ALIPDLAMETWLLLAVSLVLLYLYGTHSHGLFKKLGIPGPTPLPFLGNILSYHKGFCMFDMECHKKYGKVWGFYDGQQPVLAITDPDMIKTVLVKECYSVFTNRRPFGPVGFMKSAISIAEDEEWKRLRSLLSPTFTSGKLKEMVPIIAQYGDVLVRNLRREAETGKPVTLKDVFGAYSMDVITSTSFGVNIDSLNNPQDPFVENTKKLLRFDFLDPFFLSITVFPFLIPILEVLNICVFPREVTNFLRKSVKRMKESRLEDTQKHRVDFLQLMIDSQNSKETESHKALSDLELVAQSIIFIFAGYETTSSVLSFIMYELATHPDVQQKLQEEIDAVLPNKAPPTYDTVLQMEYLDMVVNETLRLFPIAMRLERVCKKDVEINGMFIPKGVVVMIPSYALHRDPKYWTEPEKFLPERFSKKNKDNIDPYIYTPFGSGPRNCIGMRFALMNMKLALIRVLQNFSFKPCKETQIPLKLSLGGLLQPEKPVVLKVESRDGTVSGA

As for `O=C(O)Cc1c[nH]c2cccc(O)c12` [4-HIAA, 4-hydroxyindole-3-acetic acid], in data set [1], the Tmax was roughly 2.5 h. In addition, the EC50 on human 5-HT1A receptor (setting [4]) is greater than 10 µM. Further, the “formation of metabolite from psilocin” value on recombinant CYP2D6 (rec. CYP2D6) and at recombinant CYP3A4 was “neither observed” throughout. For the same compound, the “metabolite concentration formed from psilocin” value in data set [2] is 43.0 ± 7.9 nM; on recombinant MAO-A (1,000 nM psilocin, rec. MAO-A), 20.1 ± 2.8 nM. The “metabolite formation from psilocin in presence of clorgyline” value is recorded as “inhibited” on recombinant MAO-A and “complete inhibition” in data set [3]. Besides, the “biotransformation on incubation with HLM” value in data set [3] is “did not lead to any biotransformation”. In addition, in data set [3], the “metabolite concentration formed from psilocin (mean ± SD)” value was found to be 8.5 ± 3.8 nM.

Regarding `OCCc1c[nH]c2cccc(O)c12` [4-HTP, 4-hydroxytryptophol], in data set [1] (30 mg psilocybin p.o., n = 5), the “detection in human plasma” value is “neither norpsilocin nor 4-HTP was detected”. Besides, at human 5-HT1A receptor (setting [4]), the EC50 was greater than 10 µM. In addition, the “formation of metabolite from psilocin” value at recombinant CYP2D6 (rec. CYP2D6) and on recombinant CYP3A4 was “neither observed” in each case. Besides, the “metabolite concentration formed from psilocin” value in data set [2] is 43.4 ± 6.0 nM; at recombinant MAO-A (1,000 nM psilocin, rec. MAO-A), 16.9 ± 2.9 nM. The figures for the “metabolite formation from psilocin in presence of clorgyline” value (at recombinant MAO-A; in data set [3]) were “inhibited” and “complete inhibition”, respectively. Further, in data set [3], the “biotransformation on incubation with HLM” value is recorded as “did not lead to any biotransformation”. In addition, the “metabolite concentration formed from psilocin (mean ± SD)” value in data set [3] is 25.3 ± 6.0 nM.

With `CN(C)CCc1c[nH]c2cccc(O)c12` [psilocin, 4-hydroxy-N,N-dimethyltryptamine], the time to peak (Tmax) in data set [1] was roughly 2.5 h. In addition, the EC50 on human 5-HT1A receptor was determined as 0.0017 ± 0.0024 µM. The “psilocin concentration (mean ± SD)” value at recombinant CYP2D6 (1,000 nM psilocin, rec. CYP2D6, t = 0 min) is 937 ± 145 nM; at recombinant CYP2D6 (1,000 nM psilocin, rec. CYP2D6, t = 240 min), 21.1 ± 14.2 nM; at recombinant CYP2D6 (rec. CYP2D6 with quinidine, t = 0 min), 1,081 ± 241 nM; on recombinant CYP2D6 (rec. CYP2D6 with quinidine, t = 240 min) it was 747 ± 30 nM; in data set [2] (after 240 min), 829 ± 32 nM; in data set [2] (start of incubation) it was 1,162 ± 146 nM. In addition, the psilocin metabolized is given as roughly 100% on recombinant CYP2D6 (rec. CYP2D6) and 26% on recombinant CYP3A4 (rec. CYP3A4 with ketoconazole, 240 min). For the same compound, the “effect of targeted inhibition of specific CYP enzymes in HLM on psilocin degradation” value in data set [2] (1,000 nM psilocin, HLM with selective CYP inhibitors) was “did not lead to a clear inhibition”. The psilocin concentration in data set [2] (t = 0 min) is 1,141 ± 74 nM; in data set [2] (t = 240 min), 1,096 ± 105 nM; on recombinant CYP3A4 (rec. CYP3A4, t = 0 min), 916 ± 145 nM; at recombinant CYP3A4 (rec. CYP3A4, t = 240 min), 546 ± 41 nM; on recombinant CYP3A4 (rec. CYP3A4 with ketoconazole, t = 0 min), 973 ± 133 nM; on recombinant CYP3A4 (rec. CYP3A4 with ketoconazole, t = 240 min), 720 ± 71 nM. The “change of psilocin concentration” value at recombinant MAO-A (1,000 nM psilocin, rec. MAO-A) is listed as “did not visibly decrease”; in data set [3] (1,000 nM psilocin with HLM), “did not visibly decrease”. Moreover, at recombinant CYP3A4 (1,000 nM psilocin, rec. CYP3A4, 240 min), the “decrease of psilocin concentration / psilocin metabolized” value was 40%.
